Columns and labels:
[1] = tested on: subjects with dementia; test: Trial in subjects with dementia (CDR 1-2, MMSE 14-24), Aptus positive and negative; type: in vivo, human
From the text: In a trial, the relationship between Clinical Dementia Rating Scale (CDR) and Mini Mental State Exam (MMSE) scores with measures of obesity, including Body Mass Index (BMI), Waist Circumference (WC), and waist-to-hip ratio (W/H) was explored with administration of 17α-ethynylandrost-5-ene-3β,7β,17β-triol. The trial sought to explore the anti-inflammatory and insulin sensitizing activity of 17α-ethynylandrost-5-ene-3β,7β,17β-triol in subjects with dementia, using inclusion criteria of the CDR levels 1-2 and the MMSE scores of 14-24 for inclusion criteria.
In this trial, the correlation between CDR (1-2) and MMSE (14-24) scores and the presence or absence of amyloid by the Aptus test, and also the presence of absence of metabolic inflammation using markers of obesity and metabolic inflammation was explored.
With Aptus data available for 96 subjects that met the criteria for CDR and MMSE, only 35 subjects (36%) met the Aptus criteria. When measures of obesity were examined, BMI was available for 149 subjects. Due to the age-related decrease in muscle mass, only 60 (40%) of the subjects met the CDC criteria (male BMI >40, Female BMI >35) for obesity. These restrictions would severely limit enrollment. […]

[2] = tested on: patients with cognitive impairment consistent with MCI or mild probable AD; test: Open-label three-month study, cognitive tests (QDRS, MMSE, MoCA, ADAS-Cog12, Global Rating of Change); type: in vivo, human
From the text: Twenty-three patients, approximately equal numbers of men women, age 50-89 years, with cognitive impairment consistent with MCI or mild probable AD, but without other readily apparent major systemic disease were identified and received informed consent under the supervision of a central institution review board (IRB). Patients were qualified (screened) for the study by the following criteria, QDRS score ranging from 1.5-12.5, with a converted Clinical Dementia Rating (CDR) score of 0.5 (mild cognitive impairment) to 1 (mild dementia).
Prior to treatment (baseline) concomitant medications were stabilized and the patients were tested for cognitive function by the Quick Dementia Rating Scale (QDRS), Clinical Dementia Rating (CDR) score as estimated by the QDRS, a modified form of the Alzheimer's Disease Assessment Scale (ADAS-Cog12), the Mini-Mental State Examination (MMSE), and the Montreal Cognitive Assessment (MoCA) and by multi-modal brain MRIs to establish pre-treatment data for glutathione levels (as measured by magnetic resonance spectroscopy, MRS), dendritic density (as measured by diffusion tensor imaging, DTI-NODDI); arterial signal compared (as quantified by arterial spin labeling, ASL), functional connectivity of the nucleus basalis of Meynert (NBM) with both hippocampi as well as between both hippocampi as visualized by seed analysis of blood-oxygen level dependent (BOLD) imaging, and neurovascular coupling as visualized by BOLD compared to baseline. Baseline samples of the patients' blood and cerebral spinal fluid were collected for evaluation of AD and inflammation biomarkers.
Patients were treated with 20 mg 17α-ethynylandrost-5-ene-3β,7β,17β-triol oral capsules twice daily (BID for three months. All patients received 17α-ethynylandrost-5-ene-3β,7β,17β-triol; there were no placebo controls. Safety was monitored at clinical visits at 2 weeks, 4 weeks, 8 weeks, and completion. Routine hematology and clinical chemistry tests were performed at these visits and adverse events were monitored.
At the end of the treatment schedule the baseline assessments for cognition, neuroimaging and biomarkers were repeated.

[3] = overall population, three months
[4] = patients with a baseline MMSE score 20, three months

C#C[C@]1(O)CC[C@H]2[C@@H]3[C@@H](O)C=C4C[C@@H](O)CC[C@]4(C)[C@H]3CC[C@@]21C [17α-ethynylandrost-5-ene-3β,7β,17β-triol, 17-ethynyl-10R, 13S-dimethyl 2,3,4,7, 8R, 9S, 10, 11, 12, 13, 14S, 15, 16, 17-hexadecahydro-1H-cyclopenta[a]phenanthrene-3R, 7R, 17S-triol]
cognition [1]: improvements in cognition independent of amyloid beta positivity
QDRS, median decrease ([2]; 20 mg oral BID, three months vs baseline): 0.75 points
GSR scores improved, by patients ([2]; MCI patients, three months): 15 of 17
GSR scores improved, by study partners ([2]; MCI patients, three months): 11 of 17
GSR scores improved, by the clinician ([2]; MCI patients, three months): 16 of 17
Median QDRS behavioral improved ([2]; MCI patients, three months): one
Montreal Cognitive Assessment, improved ([2]; MCI patients, three months): 7 of 17
QDRS behavioral, improved ([2]; MCI patients, three months): 11 of 18
ADAS Cog 12, median score improved ([2]; MCI population, three months): 2.3 points
ADAS Cog 12 score, improved ([2]; MCI population, three months): 14 of 17
MMSE score, improved ([2]; MCI population, three months): 8 of 17
QDRS, patients improved ([2]; of patients evaluated, 20 mg oral BID, three months): 14 of 21
ADAS Cog 12, median score improved [2, 3]: 0.67 points
ADAS Cog 12 score, improved [2, 3]: 14 of 23
Global Rating of Change (GRS), clinician's score improved [2, 3]: 18 of 23
Global Rating of Change (GRS), patient's self-evaluation score improved [2, 3]: 18 of 23
Global Rating of Change (GRS), score from study partners improved [2, 3]: 13 of 22
MMSE score, improved [2, 3]: 9 of 23
Montreal Cognitive Assessment, patients improved [2, 3]: 9 of 23
improved (QDRS) [2, 4]: 12/17
median score improvement (QDRS) [2, 4]: one
Median QDRS cognition subscores improved (declined) ([2]; three months vs baseline): 0.5 points
QDRS cognition subscores, patients improved ([2]; three months vs baseline): 16/23

Source: patent publication US20250186458A1, “METHODS FOR THE TREATMENT OF MILD COGNITIVE IMPAIRMENT” (BIOVIE INC., priority 2022, published 2025)
